In US20250228761A1, “COMPOSITION COMPRISING A SURFACE-REACTED CALCIUM CARBONATE AND A TANNIN” (Omya International AG, priority 2021, published 2025):

Experiment: In vitro measurement of antiperspirant effect (SOD4 device, Smart-Pore microchannels)
Settings: 80% hygrometry, 2 mg/cm^2 dose
Procedure: In vitro measurement of antiperspirant activity was measured with an SOD4 device from Microfactory, France. The SOD4 device is an automated biomimetic system that imitates the sweating process. The device comprises (1) Smart-Pore™: a silicone microfluidic chip containing microchannels which mimic skin pores (number of pores per chip: 4; dimensions of the pores: 60 μm×60 μm×2 mm; material: polydimethylsiloxane); (2) a pressure system controlling the flow of sweat in the pores down to nanoliter volumes; (3) a climate chamber regulated in humidity/temperature to reproduce perspiration conditions; (4) an optical system to monitor and record the interaction between the antiperspirant and artificial sweat.
Known antiperspirants block sweat pores thereby reducing sweating of a subject. The blocking is caused by a precipitate or clot in the sweat pore which is formed by interaction of the antiperspirant with components of sweat. The SOD4 device mimics this process and allows for analyzing the interaction of an antiperspirant sample and artificial sweat in the microfluidic channel. The analysis includes, e.g. detection of precipitate/clot formation, measuring precipitate/clot formation time, and measuring pressure (bursting pressure) which is necessary for removing the precipitate/clot from the microchannel. […]

Question: Which “Burst pressure (mbar)*” value (average of the maximal pressure applied before unclogging of precipitate/clot from the microchannel, after one hour interaction with artificial sweat at 25° C.) does the source give for Aluminium chlorohydrate [Sample 4] here?
Answer: 699 +/− 34 mbar

Question: What about the “Clot formation time” value (average over all observed clots, artificial sweat, 25° C.) of the same substance?
Answer: 2047 s
